{"source": "paper PMC3493702", "about": "(Cornea, 2013)", "key": {"in vitro": {"test": "in vitro", "details": "rabbit, Ptot (apparent permeability coefficient) [corneal permeability]"}, "[1]": {"details": "corneal permeability, literature value; cited from earlier work"}}, "data": [{"smiles": "CC(CO)(CO)[N+](=O)[O-]", "note": "[MNPD, 2-methyl-2-nitro-1,3-propanediol]", "values": [{"measurement": "Papp at 120 min, 100 mM", "setting": "in vitro", "result": 4.37, "unit": "×10⁻⁶ cm/s"}]}, {"smiles": "OC[C@@H](O)[C@@H](O)[C@H](O)[C@H](O)CO", "note": "[mannitol]", "values": [{"measurement": "Ptot", "setting": "[1]", "result": 2.4, "unit": "×10⁻⁶ cm/s"}]}]}
